Reference: patent publication US10842793B2, “Inhibitors of the unconventional secretion of fibroblast growth factor 2 (FGF2) by tumor cells and uses thereof” (Universität Heidelberg, priority 2016, dated 2020)
Entries after “also recorded” stand apart in the source; their conditions may differ.

Assays:
[1] = test system: CHO cells stably expressing FGF2-GFP; experiment: FGF2-GFP secretion by cell surface biotinylation; type: cell-based; details: 10, 25 and 50 μM; mock 0.5% DMSO = 100%
From the text: A stable CHO cell line expressing an FGF2-GFP fusion protein in a doxycycline-dependent manner was used to quantify FGF2 transport to cell surfaces in the absence and presence of the small molecule inhibitors introduced in FIGS. 4, 5, 6 and 7. As detailed in Experimental Procedures, following cultivation of cells in the presence of compounds as indicated and induction of FGF2-GFP expression, proteins localized to the cell surface were biotinylated with a membrane-impermeable reagent. Following quenching of the biotinylation reagent, biotinylated proteins were purified using streptavidin beads. Following SDS-PAGE analyzing both the total lysate (input termed “cells”; 1.7%) and the biotinylated cell surface fraction (33%), a Western analysis was conducted to detect the secreted population of FGF2-GFP. Using appropriate fluorescent secondary antibodies, both FGF2-GFP and GAPDH (used as a control protein restricted to the intracellular space) were quantified using the LI-COR Odyssey imaging platform. FGF2-GFP secretion quantified under mock conditions (0.5% DMSO) was defined as 100% secretion efficiency. Standard deviations are shown from three independent experiments, each of which was conducted in two technical replicates. A two-tailed and unpaired T-test was conducted to assess statistical significance (* p<0.05, ** p<0.01, *** p<0.001, **** p<0.0001). “NS” indicates absence of significant differences.
Secreted FGF2 remains bound to heparan sulfates on cell surfaces without release into cell culture supernatants. This allows for biochemical detection of the secreted population based upon cell surface biotinylation experiments. CHO cells stably expressing FGF2-GFP in a doxycycline-dependent manner were cultivated in the presence of compounds #6, #14, #21, #18 and #19 (see FIGS. 4 and 5) at 10 μM, 25 μM and 50 μM in 0.5% DMSO (final concentration) as well as under mock conditions. […] Using appropriate fluorescent secondary antibodies, FGF2-GFP and GAPDH were quantified using the LI-COR Odyssey imaging platform. […]

His-FGF2/GST-NΔ173 Tec = biological target: T1, His-FGF2/GST-NΔ173 Tec (Homo sapiens, UniProt P42680); experiment: Alpha protein-protein interaction assay, FGF2 binding to Tec kinase; details: dose-response, ± SEM, four independent experiments
T1 construct: made in house; host or cells: Tec: SF9 insect cells (baculovirus); FGF2: E. coli
Description: Alpha® protein-protein interaction assays with His-tagged FGF2 (125 nM) and GST-NΔ173 Tec (31.25 nM) (blue spheres) as well as His-tagged MBP-CARP (20 nM) and GST-titin (20 nM) (red squares) were conducted as described in the legend of FIG. 3 and in Experimental Procedures. Additionally, as a technical control, a single fusion protein containing both a GST- and a His-tag was used (20 nM; black triangles). Dose response curves were recorded with the three active compounds (#6, #14 and #21) as well as the two control compounds (#18 and #19) (FIG. 4). For each compound four independent experiments (each of which was conducted in three technical replicates) were performed. Data points were fitted using the non-linear regression function log (inhibitor) vs. response—variable slope (four parameters). Data were evaluated using GraphPad Prism (v5 for Mac OS X). Standard deviations are shown.
A Protein-Protein Interaction Assay Designed to Screen Small Molecule Libraries for Compounds Inhibiting FGF2 Binding to Tec Kinase (Alphascreen® Assay)
To quantify the interaction of FGF2 with Tec kinase under screening conditions, an assay was established based upon Alpha® technology. Briefly, this methodology is based on a pair of proteins of interest that bind to Alpha® donor and acceptor beads, respectively. Upon excitation of donor beads at 680 nm, singlet oxygen species are produced that can diffuse within a range of 200 nm. […] This in turn causes emission of light with a wave length of 520 nm that is detected as the Alpha® signal.
The optimal concentrations of His-tagged FGF2 and GST-tagged NΔ173 Tec in the Alphascreen were determinate in a cross-titration experiment (not shown) to be 31.25 nM and 62.5 nM, respectively. […] All Alpha® assays were carried out in white low volume 384-well plates (#6008280, ProxiPlate™) and read in an EnVision plate reader (Perkin Elmer). […]
AlphaScreen experiments were performed as described above. […] Following 60 min of incubation, Alpha® signals were recorded using an EnVision™ plate reader (PerkinElmer). […]

T1 sequence (P42680 174-631 limits assumed, stated change not applied): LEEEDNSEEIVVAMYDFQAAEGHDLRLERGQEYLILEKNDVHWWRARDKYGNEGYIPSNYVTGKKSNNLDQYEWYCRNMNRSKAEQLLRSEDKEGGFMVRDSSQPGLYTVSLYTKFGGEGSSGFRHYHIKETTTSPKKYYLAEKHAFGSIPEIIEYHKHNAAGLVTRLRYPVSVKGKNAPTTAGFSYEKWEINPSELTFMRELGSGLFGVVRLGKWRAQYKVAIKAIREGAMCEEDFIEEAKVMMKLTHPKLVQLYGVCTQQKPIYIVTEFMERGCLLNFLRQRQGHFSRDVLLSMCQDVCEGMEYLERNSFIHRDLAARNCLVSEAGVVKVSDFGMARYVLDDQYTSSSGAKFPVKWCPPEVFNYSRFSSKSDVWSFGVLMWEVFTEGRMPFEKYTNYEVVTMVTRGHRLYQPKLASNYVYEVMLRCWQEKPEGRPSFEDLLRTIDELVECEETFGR

Row | IC50 (His-FGF2/GST-NΔ173 Tec) [µM] | Structure (SMILES) | inhibition of FGF2 secretion from cells [1]
1 | 8.9 | COC(=O)c1c(C)[nH]c(C(=O)OCc2cc(=O)n3c(C)cccc3n2)c1C [compound #6] | inhibition was observed in a dose-dependent manner
2 | 7 | CC(=O)c1c(C)[nH]c(C(=O)OCc2cc(=O)n3cc(Br)ccc3n2)c1C [compound #14] | inhibition was observed in a dose-dependent manner
3 | 11.7 | CC(=O)c1c(C)[nH]c(C(=O)CSc2nc3cc(Cl)cnc3[nH]2)c1C [compound #21] | inhibition was stronger at 10 μM compared to higher concentrations; also recorded: robust inhibition at 10 μM and somewhat less efficient inhibition at 25 and 50 μM
